Experimental data reported in the CheMixHub viscosity set.
± gives the uncertainty stated by the source.

Test: xn = mol fraction of the nth substance listed

CCCCOCCO + ClC(Cl)Cl
viscosity (298.15 K, 101.3 kPa, x1 = 0.0035): 0.536 ± 0.007 mPa·s | viscosity (298.15 K, 101.3 kPa, x1 = 0.0216): 0.555 ± 0.008 mPa·s | viscosity (298.15 K, 101.3 kPa, x1 = 0.0344): 0.57 ± 0.008 mPa·s | viscosity (298.15 K, 101.3 kPa, x1 = 0.0767): 0.628 ± 0.008 mPa·s | viscosity (298.15 K, 101.3 kPa, x1 = 0.1259): 0.703 ± 0.009 mPa·s | viscosity (298.15 K, 101.3 kPa, x1 = 0.2281): 0.901 ± 0.011 mPa·s | viscosity (298.15 K, 101.3 kPa, x1 = 0.2903): 1.042 ± 0.013 mPa·s | viscosity (298.15 K, 101.3 kPa, x1 = 0.3627): 1.235 ± 0.015 mPa·s | viscosity (298.15 K, 101.3 kPa, x1 = 0.4472): 1.494 ± 0.018 mPa·s | viscosity (298.15 K, 101.3 kPa, x1 = 0.5049): 1.659 ± 0.019 mPa·s | viscosity (298.15 K, 101.3 kPa, x1 = 0.5823): 1.894 ± 0.022 mPa·s | viscosity (298.15 K, 101.3 kPa, x1 = 0.6772): 2.175 ± 0.025 mPa·s | viscosity (298.15 K, 101.3 kPa, x1 = 0.7828): 2.429 ± 0.028 mPa·s | viscosity (298.15 K, 101.3 kPa, x1 = 0.8296): 2.525 ± 0.029 mPa·s | viscosity (298.15 K, 101.3 kPa, x1 = 0.9123): 2.702 ± 0.03 mPa·s

CCOCCOCCOCC + ClC(Cl)Cl
viscosity (298.15 K, 101 kPa, x1 = 0.0089): 0.538 ± 0.014 mPa·s | viscosity (298.15 K, 101 kPa, x1 = 0.0178): 0.56 ± 0.015 mPa·s | viscosity (298.15 K, 101 kPa, x1 = 0.0263): 0.579 ± 0.015 mPa·s | viscosity (298.15 K, 101 kPa, x1 = 0.0446): 0.62 ± 0.016 mPa·s | viscosity (298.15 K, 101 kPa, x1 = 0.0878): 0.723 ± 0.018 mPa·s | viscosity (298.15 K, 101 kPa, x1 = 0.1473): 0.862 ± 0.02 mPa·s | viscosity (298.15 K, 101 kPa, x1 = 0.1744): 0.916 ± 0.021 mPa·s | viscosity (298.15 K, 101 kPa, x1 = 0.2224): 1.012 ± 0.022 mPa·s | viscosity (298.15 K, 101 kPa, x1 = 0.2736): 1.108 ± 0.022 mPa·s | viscosity (298.15 K, 101 kPa, x1 = 0.3402): 1.194 ± 0.022 mPa·s | viscosity (298.15 K, 101 kPa, x1 = 0.345): 1.208 ± 0.022 mPa·s | viscosity (298.15 K, 101 kPa, x1 = 0.3725): 1.248 ± 0.022 mPa·s | viscosity (298.15 K, 101 kPa, x1 = 0.4081): 1.284 ± 0.022 mPa·s | viscosity (298.15 K, 101 kPa, x1 = 0.4541): 1.316 ± 0.021 mPa·s | viscosity (298.15 K, 101 kPa, x1 = 0.509): 1.341 ± 0.02 mPa·s | viscosity (298.15 K, 101 kPa, x1 = 0.5754): 1.353 ± 0.019 mPa·s | viscosity (298.15 K, 101 kPa, x1 = 0.626): 1.358 ± 0.017 mPa·s | viscosity (298.15 K, 101 kPa, x1 = 0.6804): 1.352 ± 0.016 mPa·s | viscosity (298.15 K, 101 kPa, x1 = 0.7347): 1.342 ± 0.015 mPa·s | viscosity (298.15 K, 101 kPa, x1 = 0.7875): 1.326 ± 0.013 mPa·s | viscosity (298.15 K, 101 kPa, x1 = 0.8348): 1.312 ± 0.013 mPa·s | viscosity (298.15 K, 101 kPa, x1 = 0.8675): 1.309 ± 0.012 mPa·s | viscosity (298.15 K, 101 kPa, x1 = 0.9216): 1.292 ± 0.011 mPa·s | viscosity (298.15 K, 101 kPa, x1 = 0.9756): 1.278 ± 0.011 mPa·s

CCOCCOCCOCC + ClCCl
viscosity (298.15 K, 101 kPa, x1 = 0.0052): 0.409 ± 0.011 mPa·s | viscosity (298.15 K, 101 kPa, x1 = 0.0103): 0.413 ± 0.011 mPa·s | viscosity (298.15 K, 101 kPa, x1 = 0.0277): 0.449 ± 0.012 mPa·s | viscosity (298.15 K, 101 kPa, x1 = 0.0559): 0.492 ± 0.013 mPa·s | viscosity (298.15 K, 101 kPa, x1 = 0.0751): 0.516 ± 0.013 mPa·s | viscosity (298.15 K, 101 kPa, x1 = 0.1056): 0.576 ± 0.014 mPa·s | viscosity (298.15 K, 101 kPa, x1 = 0.1326): 0.622 ± 0.015 mPa·s | viscosity (298.15 K, 101 kPa, x1 = 0.1807): 0.699 ± 0.016 mPa·s | viscosity (298.15 K, 101 kPa, x1 = 0.2427): 0.784 ± 0.016 mPa·s | viscosity (298.15 K, 101 kPa, x1 = 0.2846): 0.843 ± 0.017 mPa·s | viscosity (298.15 K, 101 kPa, x1 = 0.3028): 0.87 ± 0.017 mPa·s | viscosity (298.15 K, 101 kPa, x1 = 0.3207): 0.893 ± 0.017 mPa·s | viscosity (298.15 K, 101 kPa, x1 = 0.3629): 0.948 ± 0.017 mPa·s | viscosity (298.15 K, 101 kPa, x1 = 0.4227): 1.006 ± 0.017 mPa·s | viscosity (298.15 K, 101 kPa, x1 = 0.445): 1.031 ± 0.017 mPa·s | viscosity (298.15 K, 101 kPa, x1 = 0.5119): 1.096 ± 0.017 mPa·s | viscosity (298.15 K, 101 kPa, x1 = 0.5582): 1.131 ± 0.016 mPa·s | viscosity (298.15 K, 101 kPa, x1 = 0.583): 1.148 ± 0.016 mPa·s | viscosity (298.15 K, 101 kPa, x1 = 0.6108): 1.172 ± 0.015 mPa·s | viscosity (298.15 K, 101 kPa, x1 = 0.6567): 1.192 ± 0.015 mPa·s | viscosity (298.15 K, 101 kPa, x1 = 0.7048): 1.217 ± 0.014 mPa·s | viscosity (298.15 K, 101 kPa, x1 = 0.7501): 1.233 ± 0.013 mPa·s | viscosity (298.15 K, 101 kPa, x1 = 0.803): 1.246 ± 0.012 mPa·s | viscosity (298.15 K, 101 kPa, x1 = 0.8457): 1.264 ± 0.012 mPa·s | viscosity (298.15 K, 101 kPa, x1 = 0.9124): 1.268 ± 0.011 mPa·s | viscosity (298.15 K, 101 kPa, x1 = 0.9488): 1.269 ± 0.011 mPa·s | viscosity (298.15 K, 101 kPa, x1 = 0.9709): 1.27 ± 0.011 mPa·s

CCOC(=O)CCl + Clc1ccccc1
viscosity (298.15 K, 101.3 kPa, x1 = 0.1064): 0.799 ± 0.011 mPa·s | viscosity (298.15 K, 101.3 kPa, x1 = 0.2055): 0.828 ± 0.011 mPa·s | viscosity (298.15 K, 101.3 kPa, x1 = 0.3): 0.858 ± 0.012 mPa·s | viscosity (298.15 K, 101.3 kPa, x1 = 0.3972): 0.889 ± 0.012 mPa·s | viscosity (298.15 K, 101.3 kPa, x1 = 0.5005): 0.925 ± 0.012 mPa·s | viscosity (298.15 K, 101.3 kPa, x1 = 0.5976): 0.959 ± 0.013 mPa·s | viscosity (298.15 K, 101.3 kPa, x1 = 0.6985): 0.996 ± 0.013 mPa·s | viscosity (298.15 K, 101.3 kPa, x1 = 0.7953): 1.031 ± 0.014 mPa·s | viscosity (298.15 K, 101.3 kPa, x1 = 0.8963): 1.064 ± 0.014 mPa·s | viscosity (303.15 K, 101.3 kPa, x1 = 0.1064): 0.752 ± 0.01 mPa·s | viscosity (303.15 K, 101.3 kPa, x1 = 0.2055): 0.778 ± 0.011 mPa·s | viscosity (303.15 K, 101.3 kPa, x1 = 0.3): 0.804 ± 0.011 mPa·s | viscosity (303.15 K, 101.3 kPa, x1 = 0.3972): 0.834 ± 0.011 mPa·s | viscosity (303.15 K, 101.3 kPa, x1 = 0.5005): 0.865 ± 0.012 mPa·s | viscosity (303.15 K, 101.3 kPa, x1 = 0.5976): 0.895 ± 0.012 mPa·s | viscosity (303.15 K, 101.3 kPa, x1 = 0.6985): 0.927 ± 0.012 mPa·s | viscosity (303.15 K, 101.3 kPa, x1 = 0.7953): 0.959 ± 0.013 mPa·s | viscosity (303.15 K, 101.3 kPa, x1 = 0.8963): 0.986 ± 0.013 mPa·s | viscosity (308.15 K, 101.3 kPa, x1 = 0.1064): 0.706 ± 0.01 mPa·s | viscosity (308.15 K, 101.3 kPa, x1 = 0.2055): 0.728 ± 0.01 mPa·s | viscosity (308.15 K, 101.3 kPa, x1 = 0.3): 0.751 ± 0.01 mPa·s | viscosity (308.15 K, 101.3 kPa, x1 = 0.3972): 0.776 ± 0.011 mPa·s | viscosity (308.15 K, 101.3 kPa, x1 = 0.5005): 0.804 ± 0.011 mPa·s | viscosity (308.15 K, 101.3 kPa, x1 = 0.5976): 0.831 ± 0.011 mPa·s | viscosity (308.15 K, 101.3 kPa, x1 = 0.6985): 0.858 ± 0.012 mPa·s | viscosity (308.15 K, 101.3 kPa, x1 = 0.7953): 0.885 ± 0.012 mPa·s | viscosity (308.15 K, 101.3 kPa, x1 = 0.8963): 0.91 ± 0.012 mPa·s

CCOC(=O)CCl + N#CCc1ccccc1
viscosity (308.15 K, 101 kPa, x2 = 0.3793): 1.155 ± 0.013 mPa·s
